Test results reported in paper PMC11428108 (Frontiers in Molecular Neuroscience, 2024).
Where a name gives a salt, the structure may show the parent alone.

How the values were obtained:
[1] = target: T1, human (α4)2(β2)2α5 nAChRs (Homo sapiens, UniProt P17787+P30532+P43681); assay: FLEXstation membrane potential assay in HEK cells stably expressing (α4)2(β2)2α5 nAChRs; type: cell-based; settings: nicotine 0.001–50 μM, ±SEM
T1 construct: expressed in transfected cells
From the text: (§1) Human embryonic kidney (HEK) cell lines stably expressing human (α4)2(β2)2β2/α4 (α4β2*) nAChRs, (α4)2(β2)2α5 nAChRs, (α4)2(β2)2β3 nAChRs, (α3)2(β4)2α3/β4 (α3β4*) nAChRs, (α3)2(β2)2α3/β2 (α3β2*) nAChRs, (α3)2(β4)2α5 nAChRs, or (α3)2(β2)2α5 nAChRs were maintained as described previously ([Wang et al., 2015]; [Kuryatov et al., 2005]; [Caligiuri et al., 2022]). The FLEXstation bench top scanning fluorometer from Molecular Devices was used to assay nAChR function in these cells, according to published protocols ([Wang et al., 2015]; [Kuryatov et al., 2005]). The membrane potential kit (Molecular Devices) was used according to the manufacturer’s protocols. Serial dilutions of SR9883 were manually added to the assay plate 15 min prior to recording. […] Compound dilutions were prepared in V-shaped 96-well plates (Fisher Scientific Co.) and added to cell culture wells at a rate of 20 μL s^−1 during recording. Cells were incubated at 29°C for 6–20 h prior to assays to upregulate nAChRs ([Wang et al., 2015]; [Kuryatov et al., 2005]). Data points were averaged from 3 to 4 responses from separate wells. Potency and efficacy were calculated using the Hill equation as described previously ([Wang et al., 2015]).
(§2) Concentration-response curves of SR9883 actions in nAChR-expressing HEK cells and oocytes were fitted to the Hill equation using a nonlinear least squares curve fit method and efficacy and potency values were calculated as previously described ([Wang et al., 2015]). Plasma and brain levels of SR9983 after oral administration were compared using a two-tailed paired t test. […] For the ICSS threshold experiment, percentages of baseline reward threshold scores were calculated by expressing the absolute threshold scores as a percentage of the scores obtained during baseline. The baseline values were the mean thresholds on the three sessions prior to drug injections. Response latency data were analyzed in the same manner as the threshold data. […] Effects of SR9883 on responding for food pellets in rats was analyzed by a two-tailed paired t test. […] Significant main or interaction effects in ANOVAs were followed by Bonferroni or Newman–Keuls post-hoc tests as appropriate. All statistical analyses were performed using GraphPad Prism software with α set to 0.05.

[2] = target: human (α4)2(β2)2β2/α4 (α4β2*) nAChRs (Homo sapiens, UniProt P17787+P43681); assay: FLEXstation membrane potential assay in HEK cells stably expressing α4β2* nAChRs; type: cell-based; settings: nicotine 0.001–50 μM, ±SEM
Sequence of human (α4)2(β2)2β2/α4 (α4β2*) nAChRs (P43681 27-627): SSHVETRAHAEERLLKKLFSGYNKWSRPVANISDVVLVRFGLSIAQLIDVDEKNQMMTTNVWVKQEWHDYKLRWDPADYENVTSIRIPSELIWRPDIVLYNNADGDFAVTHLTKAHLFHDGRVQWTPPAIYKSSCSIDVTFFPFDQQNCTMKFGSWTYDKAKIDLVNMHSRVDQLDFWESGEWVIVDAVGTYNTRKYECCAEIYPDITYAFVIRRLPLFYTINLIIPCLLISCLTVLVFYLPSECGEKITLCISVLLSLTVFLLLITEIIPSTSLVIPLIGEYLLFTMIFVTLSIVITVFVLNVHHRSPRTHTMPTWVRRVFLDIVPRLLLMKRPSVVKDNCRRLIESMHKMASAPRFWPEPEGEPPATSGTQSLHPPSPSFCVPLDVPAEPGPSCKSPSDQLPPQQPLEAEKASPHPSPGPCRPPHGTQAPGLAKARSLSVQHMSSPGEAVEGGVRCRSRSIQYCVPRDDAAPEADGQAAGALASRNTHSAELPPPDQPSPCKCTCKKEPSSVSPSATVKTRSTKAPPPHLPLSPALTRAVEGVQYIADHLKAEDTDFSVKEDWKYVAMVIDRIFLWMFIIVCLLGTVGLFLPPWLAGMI
Sequence of human (α4)2(β2)2β2/α4 (α4β2*) nAChRs (P17787 26-502): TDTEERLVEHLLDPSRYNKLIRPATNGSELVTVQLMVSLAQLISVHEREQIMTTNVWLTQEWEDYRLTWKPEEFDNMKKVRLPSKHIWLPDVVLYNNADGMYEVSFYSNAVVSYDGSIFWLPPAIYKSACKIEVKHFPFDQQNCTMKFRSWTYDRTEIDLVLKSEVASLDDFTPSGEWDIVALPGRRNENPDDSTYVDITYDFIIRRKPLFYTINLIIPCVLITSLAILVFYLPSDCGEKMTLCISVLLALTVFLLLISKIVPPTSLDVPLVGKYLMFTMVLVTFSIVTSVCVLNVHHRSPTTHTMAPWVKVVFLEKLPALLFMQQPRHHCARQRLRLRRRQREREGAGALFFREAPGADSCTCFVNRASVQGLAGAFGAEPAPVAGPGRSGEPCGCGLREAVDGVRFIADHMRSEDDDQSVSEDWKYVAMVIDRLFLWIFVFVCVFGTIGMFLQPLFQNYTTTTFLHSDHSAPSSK
From the text: as §1, §2

[3] = system: α4β2* nAChRs; design: method as in earlier work; settings: agonist-induced signaling; ref Wang et al., 2015; Grupe et al., 2013; Appiani et al., 2024; Jin et al., 2014; read-out: EC50 on α4β2* nAChR signaling; cited from earlier work
[4] = system: rats; design: method as in Maurer et al., 2017; settings: ref Maurer et al., 2017; cited from earlier work
[5] = system: people; design: method as in Knight et al., 2009; settings: placebo approximately 9%; ref Knight et al., 2009; cited from earlier work

T1 sequence (P43681 29-627 limits assumed): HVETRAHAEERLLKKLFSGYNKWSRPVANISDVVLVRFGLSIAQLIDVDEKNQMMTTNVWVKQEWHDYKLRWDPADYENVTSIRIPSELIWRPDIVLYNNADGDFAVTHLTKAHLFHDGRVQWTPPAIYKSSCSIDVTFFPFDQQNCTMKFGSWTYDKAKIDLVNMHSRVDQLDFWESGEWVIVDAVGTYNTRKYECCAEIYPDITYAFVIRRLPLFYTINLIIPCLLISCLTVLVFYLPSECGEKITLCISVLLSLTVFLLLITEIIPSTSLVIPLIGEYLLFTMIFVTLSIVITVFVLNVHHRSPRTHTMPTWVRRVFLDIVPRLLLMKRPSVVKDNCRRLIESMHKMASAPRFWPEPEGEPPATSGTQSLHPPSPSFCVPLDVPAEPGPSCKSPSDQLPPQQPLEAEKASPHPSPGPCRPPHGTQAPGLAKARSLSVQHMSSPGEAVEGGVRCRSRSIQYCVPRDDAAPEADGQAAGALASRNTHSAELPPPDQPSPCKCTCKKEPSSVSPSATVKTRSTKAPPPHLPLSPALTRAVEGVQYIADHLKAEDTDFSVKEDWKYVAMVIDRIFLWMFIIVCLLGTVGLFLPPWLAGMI
T1 sequence (P17787 26-502): as the sequence (P17787 26-502) above
T1 sequence (P30532 23-468): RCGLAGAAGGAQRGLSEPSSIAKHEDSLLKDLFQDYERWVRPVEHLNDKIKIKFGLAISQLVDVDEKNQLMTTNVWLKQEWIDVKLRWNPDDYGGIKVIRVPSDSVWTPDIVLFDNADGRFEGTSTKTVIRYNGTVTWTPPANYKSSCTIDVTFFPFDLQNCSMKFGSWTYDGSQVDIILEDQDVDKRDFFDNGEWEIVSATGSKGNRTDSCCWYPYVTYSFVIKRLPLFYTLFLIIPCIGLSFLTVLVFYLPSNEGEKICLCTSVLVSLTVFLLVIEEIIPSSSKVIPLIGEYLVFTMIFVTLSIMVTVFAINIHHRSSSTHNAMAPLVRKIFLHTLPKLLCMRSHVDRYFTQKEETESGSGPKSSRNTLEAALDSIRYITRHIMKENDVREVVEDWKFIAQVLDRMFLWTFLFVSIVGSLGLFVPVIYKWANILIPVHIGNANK

Q: What does the source list for CN1CCC[C@H]1c1cccnc1 [nicotine, (−)-Nicotine hydrogen tartrate salt, reference compound]?
A: Efficacy ([1]; +SR9883 (10 μM)): 92.69 ± 2.19%; nHill of nicotine ([1]; +SR9883 (10 μM)): 1.2934 ± 0.1439; Efficacy ([1]; −SR9883): 100.49 ± 3.89%; nHill of nicotine ([1]; −SR9883): 0.7395 ± 0.0767; Efficacy ([2]; +SR9883 (10 μM)): 87.20 ± 1.68%; nHill of nicotine ([2]; +SR9883 (10 μM)): 1.0749 ± 0.0928; Efficacy ([2]; −SR9883): 96.89 ± 2.82%; nHill of nicotine ([2]; −SR9883): 0.8145 ± 0.0740

Q: Which results are given for N#Cc1cccc(-c2nc(-c3cccnc3)no2)c1 [NS9283, 3-[3-(3-pyridyl)-1,2,4-oxadiazol-5-yl]benzonitrile]?
A: EC50 [3]: ~1000 nM; Intravenous nicotine self-administration behavior [4]: decrease

Q: With CC(NC(C)(C)C)C(=O)c1cccc(Cl)c1 (stereo not drawn) [Zyban, bupropion] as the compound, how does the “People remaining abstinent after 1 year of a quit attempt” value [5] read?
A: The value was about 16%.

Q: With c1cnc2cc3c(cc2n1)[C@@H]1CNC[C@H]3C1 [Chantix, varenicline] as the compound, how does the “People remaining abstinent after 1 year of a quit attempt” value [5] read?
A: The value was “approximately 23%”.
